Test results: patent publication US12441695B2, “Substituted thiadiazinone dioxide and preparation method therefor, herbicidal composition, and application therefor” (Qingdao Kingagroot Chemical Compound Co., Ltd., priority 2019, dated 2025)

What was measured:
[1] = tested on: major crops (wheat, corn, rice, soybean, cotton, oilseed rape, millet, sorghum); experiment: Experiment on weeding effect in post-emergence stage (crops); format: in vivo; settings: 600 g/ha active ingredient plus water 450 kg/ha, 3 weeks after application; for corn plant damage level (growth control rate): crop corn; for rice plant damage level (growth control rate): crop rice; for soybean plant damage level (growth control rate): crop soybean
How it was run: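 Weed and crop seeds were sown in soil-filled pots, covered with 0.5–2 cm soil and grown in a greenhouse. Plants were sprayed 2–3 weeks after sowing using a spray tower, with compound dissolved in acetone plus Tween 80 and diluted in water. Effect was expressed as fresh-weight growth control rate.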

[2] = tested on: monocotyledonous and dicotyledonous weeds; experiment: Experiment on weeding effect in post-emergence stage (weeds); format: in vivo; settings: 600 g/ha active ingredient plus water 450 kg/ha, 3 weeks after application, fresh weight control rate; for Amaranthus retroflexus activity level (growth control rate): fomesafen-resistant Amaranthus retroflexus
How it was run: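 Greenhouse pot-grown weeds and crops sprayed post-emergence 2–3 weeks after sowing with compound in acetone/Tween 80/water. Fresh-weight growth control scored after 3 weeks on a 0–5 scale (5: >85%, 0: <5%).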

Row | SMILES | corn plant damage level (growth control rate) [1] | rice plant damage level (growth control rate) [1] | soybean plant damage level (growth control rate) [1] | Amaranthus retroflexus activity level (growth control rate) [2] | Digitaria sanguinalis activity level (growth control rate) [2] | Echinochloa crus-galli activity level (growth control rate) [2] | Setaria viridis activity level (growth control rate) [2]
1 | O=C1c2c(cc(F)c(F)c2F)NS(=O)(=O)N1CCl [E, reference compound] | 1 (Level 1: growth control rate is greater than or equal to 500 and less than 200%) | 1 (Level 1: growth control rate is greater than or equal to 500 and less than 200%) | 1 (Level 1: growth control rate is greater than or equal to 500 and less than 200%) | 2 (Level 2: growth control rate is greater than or equal to 20% and less than 40%) | 1 (Level 1: growth control rate is greater than or equal to 500 and less than 200%) | 1 (Level 1: growth control rate is greater than or equal to 500 and less than 200%) | 2 (Level 2: growth control rate is greater than or equal to 20% and less than 40%)
2 | CCCCC(=O)N1c2ccc(F)cc2C(=O)N(C(C)C)S1(=O)=O [Compound 181] | 0 (Level 0: growth control rate is less than 5%) | 0 (Level 0: growth control rate is less than 5%) | 0 (Level 0: growth control rate is less than 5%) | 5 (Level 5: growth control rate is above 85%) |  |  | 
3 | CC(C)N1C(=O)c2cc(F)ccc2N(C)S1(=O)=O [Compound 49] | 0 (Level 0: growth control rate is less than 5%) | 0 (Level 0: growth control rate is less than 5%) | 0 (Level 0: growth control rate is less than 5%) | 5 (Level 5: growth control rate is above 85%) |  | 3 (Level 3: growth control rate is greater than or equal to 40% and less than 60%) | 3 (Level 3: growth control rate is greater than or equal to 40% and less than 60%)
4 | CC(C)C(=O)N1c2c(F)cc(F)cc2C(=O)N(C(C)C)S1(=O)=O [Compound 215] | 1 (Level 1: growth control rate is greater than or equal to 500 and less than 200%) |  |  | 5 (Level 5: growth control rate is above 85%) | 5 (Level 5: growth control rate is above 85%) | 5 (Level 5: growth control rate is above 85%) | 5 (Level 5: growth control rate is above 85%)
5 | CC(C)N1C(=O)c2cc(Cl)ccc2NS1(=O)=O [A, reference compound] | 0 (Level 0: growth control rate is less than 5%) | 0 (Level 0: growth control rate is less than 5%) | 0 (Level 0: growth control rate is less than 5%) | 1 (Level 1: growth control rate is greater than or equal to 500 and less than 200%) | 1 (Level 1: growth control rate is greater than or equal to 500 and less than 200%) | 1 (Level 1: growth control rate is greater than or equal to 500 and less than 200%) | 2 (Level 2: growth control rate is greater than or equal to 20% and less than 40%)
6 | CCCOC(=O)N1c2c(F)cc(F)cc2C(=O)N(C(C)C)S1(=O)=O [Compound 218] | 0 (Level 0: growth control rate is less than 5%) | 1 (Level 1: growth control rate is greater than or equal to 500 and less than 200%) |  | 5 (Level 5: growth control rate is above 85%) |  | 4 (Level 4: growth control rate is greater than or equal to 60% and less than 85%) | 5 (Level 5: growth control rate is above 85%)
7 | CCC(C)N1C(=O)c2cc(F)ccc2NS1(=O)=O (centres unmarked) [Compound 161] | 0 (Level 0: growth control rate is less than 5%) | 1 (Level 1: growth control rate is greater than or equal to 500 and less than 200%) | 0 (Level 0: growth control rate is less than 5%) |  |  |  | 3 (Level 3: growth control rate is greater than or equal to 40% and less than 60%)
8 | CC(C)N1C(=O)c2cc(F)cc(F)c2N(C(=O)C2CC2)S1(=O)=O [Compound 217] | 1 (Level 1: growth control rate is greater than or equal to 500 and less than 200%) |  |  | 5 (Level 5: growth control rate is above 85%) | 5 (Level 5: growth control rate is above 85%) | 5 (Level 5: growth control rate is above 85%) | 5 (Level 5: growth control rate is above 85%)
9 | CCCC(C)N1C(=O)c2cc(F)ccc2NS1(=O)=O (centres unmarked) [Compound 163] |  | 0 (Level 0: growth control rate is less than 5%) |  | 3 (Level 3: growth control rate is greater than or equal to 40% and less than 60%) |  |  | 
10 | CC(C)OC(=O)OC(C)N1c2ccc(F)cc2C(=O)N(C(C)C)S1(=O)=O (racemic) [Compound 193] | 0 (Level 0: growth control rate is less than 5%) | 0 (Level 0: growth control rate is less than 5%) | 0 (Level 0: growth control rate is less than 5%) | 4 (Level 4: growth control rate is greater than or equal to 60% and less than 85%) |  |  | 
11 | CCOC(=O)OC(C)N1c2c(F)cc(F)cc2C(=O)N(C(C)C)S1(=O)=O (centres unmarked) [Compound 151] | 1 (Level 1: growth control rate is greater than or equal to 500 and less than 200%) | 1 (Level 1: growth control rate is greater than or equal to 500 and less than 200%) | 1 (Level 1: growth control rate is greater than or equal to 500 and less than 200%) | 5 (Level 5: growth control rate is above 85%) | 5 (Level 5: growth control rate is above 85%) | 5 (Level 5: growth control rate is above 85%) | 5 (Level 5: growth control rate is above 85%)
12 | C=CC(=O)N1c2c(F)cc(F)cc2C(=O)N(C(C)C)S1(=O)=O [Compound 216] | 0 (Level 0: growth control rate is less than 5%) | 0 (Level 0: growth control rate is less than 5%) |  | 4 (Level 4: growth control rate is greater than or equal to 60% and less than 85%) | 3 (Level 3: growth control rate is greater than or equal to 40% and less than 60%) | 3 (Level 3: growth control rate is greater than or equal to 40% and less than 60%) | 4 (Level 4: growth control rate is greater than or equal to 60% and less than 85%)
13 | CC(C)N1C(=O)c2cc(F)ccc2N(C(=O)N(C)C)S1(=O)=O [Compound 190] | 0 (Level 0: growth control rate is less than 5%) | 0 (Level 0: growth control rate is less than 5%) | 0 (Level 0: growth control rate is less than 5%) | 3 (Level 3: growth control rate is greater than or equal to 40% and less than 60%) |  |  | 
14 | CC(C)OC(=O)OC(C)N1c2c(F)cc(F)cc2C(=O)N(C(C)C)S1(=O)=O (racemic) [Compound 226] | 1 (Level 1: growth control rate is greater than or equal to 500 and less than 200%) | 0 (Level 0: growth control rate is less than 5%) |  | 5 (Level 5: growth control rate is above 85%) |  |  | 
15 | COCN1c2c(F)cc(F)cc2C(=O)N(C(C)C)S1(=O)=O [Compound 213] | 0 (Level 0: growth control rate is less than 5%) | 1 (Level 1: growth control rate is greater than or equal to 500 and less than 200%) | 0 (Level 0: growth control rate is less than 5%) | 3 (Level 3: growth control rate is greater than or equal to 40% and less than 60%) |  |  | 
16 | CC(C)N1C(=O)c2cc(Br)ccc2NS1(=O)=O [B, reference compound] | 0 (Level 0: growth control rate is less than 5%) | 0 (Level 0: growth control rate is less than 5%) | 0 (Level 0: growth control rate is less than 5%) | 1 (Level 1: growth control rate is greater than or equal to 500 and less than 200%) | 0 (Level 0: growth control rate is less than 5%) | 0 (Level 0: growth control rate is less than 5%) | 0 (Level 0: growth control rate is less than 5%)
